Legend:
[1] = side effects in the Example 2 patient; type: in vivo, human; settings: Example 2, person, oral
Description: Example 2 Mature human ingests 7 to 10 drops of emu oil per day, […].

[2] = subjects with age-related memory decline, 60 days of treatment; cited from earlier work
[3] = rats; cited from earlier work
[4] = humans; cited from earlier work
[5] = multi-infarct dementia patients; cited from earlier work

## CC[C@H](C)C(=O)O[C@H]1C[C@@H](C)C=C2C=C[C@H](C)[C@H](CC[C@@H]3C[C@@H](O)CC(=O)O3)[C@H]21 [Mevocore]
[1]
  side effects: has suffered side effects, including hair loss

## O=C(O)[C@@H]1CCC(O)=N1 [pyroglutamate, 2-oxo-pyrrolidone carboxylic acid]
[2]
  verbal memory functions: effective in improving verbal memory functions
[3]
  anti-anxiety effects: has anti-anxiety effects
  memory and learning: improves memory and learning
[4]
  alcohol-induced memory deficits: effective
[5]
  attention: significant increase of attention
  consolidation of memory: statistically significant improvement
  psychological tests of short-term retrieval, long-term retrieval and long-term storage of memory: improvement

— patent US6951658B1, “Emu-based compositions for mental well-being and method of use” (Pearson Research & Development Limited, priority 2003, dated 2005)
